One series deals with human SGLT2 (Homo sapiens (Human), UniProt P31639). Kind of series: SGLT2 functional assay: inhibition of AMG uptake in CHO-FlpIn cells stably expressing human SGLT2. The class given is cell-based. The settings on record: read-out: hSGLT2 IC50. The text has this: The SGLT2 functional assay was designed to detect the inhibition of methyl-alpha-D glucopyranoside (AMG—a non-metabolizable form of glucose) uptake via the SGLT2 transporter. The SGLT2 transporter recovers glucose from the proximal tubules of the kidney; its inhibition results in sugar wasted in the urine. The positive control compound, Phlorizin, is a known inhibitor of glucose uptake for SGLT2 and was used for comparing the high percent effect of SGLT2 inhibition of the test compounds.
CHO-FlpIn (Invitrogen, Carlsbad, Calif.) cells stably expressing human SGLT2 (pcDNA5/FRT) were plated in Iso-TC 96 well plates (Perkin Elmer, Waltham, Mass.) at a density of 100,000 cells/well in 100 microL of growth media (1:1 F-12/DMEM media (Gibco, Carlsbad, Calif.), 10% FBS (Sigma, St. Louis Mo.), 1× Pen/Strep (Gibco, Carlsbad, Calif.), 600 microg/mL Hygromycin (Invitrogen, Carlsbad, Calif.)). Prior to treating with test compound, confluent cells were serum starved for 2 hours at 37° C. in 1:1 F-12/DMEM media, replacing with fresh F-12/DMEM media after 1 hour. […] After incubation, cells were washed twice with ice cold wash buffer (uptake buffer containing 200 microM Phlorizin (Sigma), air dried and lysed in 30 microL of 200 mM NaOH and 1% SDS buffer on an orbital shaker. Microscint 40 (Perkin Elmer, Waltham, Mass.) was added to the lysed cells (giving a final volume of 200 microL) and mixed by orbital shaking for 30 minutes. Plates were stored in the dark overnight and quantitated in the 1540 Microbeta Trilux (Wallac, Waltham, Mass.) using a normalized protocol for ^14C detection. The percent effect of test compounds to inhibit AMG uptake was calculated using the following calculation: [% Effect=((ZPE−T)/(ZPE−HPE))×100%] where “ZPE” is the corrected counts per minute (CCPM) in control wells containing 0.5% DMSO, “T” is the CCPM in wells containing test compound at various concentrations of the standard curve, and “HPE” is the high percent effect referring to the CCPM in control wells containing 10 microM Phlorizin. The IC50 values were calculated using a dose response equation and are summarized for the compounds tested in Table 1. **For test compound 1, cells were pre-incubated with test compound 1 for 15 minutes prior to the addition of the appropriate amount of AMG (40 nCi AMG [U-^14C] (Perkin Elmer, Waltham, Mass.) in unlabelled AMG (Aldrich, St. Louis, Mo.)) per well yielding a final concentration of 200 microM AMG. […]

For the next series, the target named is hSGLT1 (Homo sapiens (Human), UniProt P13866). Nature of the series: hSGLT1 inhibition (Table 1). The class given is cell-based. The settings on record: individual runs (Run No.).
The mark [1] stands for this setting: final concentration of 11.33 microM AMG, individual runs (Run No.).

Molecules are shown by their SMILES. Several values for one entry are separate records, joined by “and”; a condition that tells them apart may be missing. Equal values may be shown once. Read-outs that look alike come from different tables or passages of the source.

Chain of human SGLT2 (P31639 whole entry): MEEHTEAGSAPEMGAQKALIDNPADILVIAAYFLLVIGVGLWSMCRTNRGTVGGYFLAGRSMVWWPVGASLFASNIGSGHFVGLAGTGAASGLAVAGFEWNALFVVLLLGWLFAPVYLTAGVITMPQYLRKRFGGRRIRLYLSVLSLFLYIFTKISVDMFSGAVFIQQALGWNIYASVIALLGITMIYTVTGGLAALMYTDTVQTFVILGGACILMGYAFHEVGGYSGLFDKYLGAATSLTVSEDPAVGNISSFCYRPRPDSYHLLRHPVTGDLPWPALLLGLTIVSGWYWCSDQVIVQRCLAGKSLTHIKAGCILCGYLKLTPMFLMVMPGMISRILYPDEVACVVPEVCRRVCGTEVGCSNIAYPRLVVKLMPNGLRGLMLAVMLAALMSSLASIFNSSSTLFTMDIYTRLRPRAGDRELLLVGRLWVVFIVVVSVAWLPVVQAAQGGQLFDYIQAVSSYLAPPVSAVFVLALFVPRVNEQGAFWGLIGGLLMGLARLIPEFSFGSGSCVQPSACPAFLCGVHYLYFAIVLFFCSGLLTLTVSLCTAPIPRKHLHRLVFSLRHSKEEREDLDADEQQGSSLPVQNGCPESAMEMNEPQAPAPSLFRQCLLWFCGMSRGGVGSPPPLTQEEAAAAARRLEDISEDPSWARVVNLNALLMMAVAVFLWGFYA
Chain of hSGLT1 (P13866 whole entry): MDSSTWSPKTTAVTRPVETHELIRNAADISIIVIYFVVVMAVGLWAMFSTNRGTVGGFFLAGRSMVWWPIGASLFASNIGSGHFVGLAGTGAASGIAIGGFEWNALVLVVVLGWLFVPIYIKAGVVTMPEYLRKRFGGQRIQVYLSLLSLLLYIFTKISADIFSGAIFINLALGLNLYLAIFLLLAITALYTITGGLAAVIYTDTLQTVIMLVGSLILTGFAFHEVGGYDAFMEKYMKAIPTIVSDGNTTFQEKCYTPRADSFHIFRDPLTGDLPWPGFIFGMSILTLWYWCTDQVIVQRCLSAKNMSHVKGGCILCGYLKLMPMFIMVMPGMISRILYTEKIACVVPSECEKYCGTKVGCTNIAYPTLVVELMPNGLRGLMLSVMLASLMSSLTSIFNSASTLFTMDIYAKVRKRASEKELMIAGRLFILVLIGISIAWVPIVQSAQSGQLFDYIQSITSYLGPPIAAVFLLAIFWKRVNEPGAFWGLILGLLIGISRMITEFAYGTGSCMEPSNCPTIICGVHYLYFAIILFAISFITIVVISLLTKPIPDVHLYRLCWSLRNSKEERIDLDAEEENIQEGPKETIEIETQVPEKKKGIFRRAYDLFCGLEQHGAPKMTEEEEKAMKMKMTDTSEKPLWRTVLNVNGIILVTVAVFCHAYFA

The term IC50 denotes the midpoint of a concentration-inhibition curve. With `OC[C@@]12CO[C@@](c3ccc(Cl)c(Cc4ccc(O)cc4)c3)(O1)[C@H](O)[C@@H](O)[C@@H]2O` [Example 1, (1S,2S,3S,4R,5S)-5-[4-chloro-3-(4-hydroxy-benzyl)-phenyl]-1-hydroxymethyl-6,8-dioxa-bicyclo[3.2.1]octane-2,3,4-triol], the IC50 at human SGLT2 (** final concentration of 200 microM AMG) is 2.6 nM. As a reminder, the melting point is the temperature, or range, at which the solid turns liquid. In turn, `CCOc1ccc(Cc2cc([C@]34OC[C@](COC(C)=O)(O3)[C@@H](OC(C)=O)[C@H](OC(C)=O)[C@H]4OC(C)=O)ccc2Cl)cc1` [Example 2, Acetic acid (1R,2S,3S,4R,5S)-3,4-diacetoxy-1-acetoxymethyl-5-[4-chloro-3-(4-ethoxy-benzyl)-phenyl]-6,8-dioxa-bicyclo[3.2.1]oct-2-yl ester] showed a melting point of 134.3 °C. The IC50 at human SGLT2 (setting [1]) is 1090 nM and 1770 nM. At hSGLT1, inhibition was half-maximal at 10000 nM (IC50). Take `CCOc1ccc(Cc2cc([C@]34OC[C@](COC(C)=O)(O3)[C@@H](O)[C@H](O)[C@H]4O)ccc2Cl)cc1` [Example 3, Acetic acid (1R,2S,3S,4R,5S)-5-[4-chloro-3-(4-ethoxy-benzyl)-phenyl]-2,3,4-trihydoxy-6,8-dioxa-bicyclo[3.2.1]oct-1-ylmethyl ester]: the IC50 at hSGLT1 was 3470 nM and 5830 nM. With `CCOC(=O)OC[C@@]12CO[C@@](c3ccc(Cl)c(Cc4ccc(OCC)cc4)c3)(O1)[C@H](O)[C@@H](O)[C@@H]2O` [Example 4, Carbonic acid (1R,2S,3S,4R,5S)-5-[4-chloro-3-(4-ethoxy-benzyl)-phenyl]-2,3,4-trihydroxy-6,8-dioxa-bicyclo[3.2.1]oct-1-ylmethyl ester ethyl ester], the values for the IC50 on human SGLT2 (setting [1]) and at hSGLT1 were 45.9 nM and 3360 nM, respectively.

As for `CCOc1ccc(Cc2cc([C@]34OC[C@](CF)(O3)[C@@H](O)[C@H](O)[C@H]4O)ccc2Cl)cc1` [Example 8, (1S,2S,3S,4R,5S)-5-[4-Chloro-3-(4-ethoxy-benzyl)-phenyl]-1-fluoromethyl-6,8-dioxa-bicyclo[3.2.1]octane-2,3,4-triol], the half-inhibitory concentration (IC50) at human SGLT2 (setting [1]) was 4 nM (2×) and 3 nM; on hSGLT1, 1970 nM and 1890 nM and 2000 nM.

The values above are taken from patent US8669380B2, “Dioxa-bicyclo[3.2.1]octane-2,3,4-triol derivatives” (Pfizer Inc., priority 2009, dated 2014).
